Measured values published in US10844077B2, “Thiazolyl-containing compounds for treating proliferative diseases” (Dana-Farber Cancer Institute, Inc., priority 2014, dated 2020).
Where “and” joins values, the source holds several entries; their conditions need not be identical. Equal entries are not always repeated.

Key:
Assay in all cases: KINATIV assay
Type in all cases: cell-based
Settings in all cases: 1 μM, 90 minutes, BCWM.1 cells
[1] = tested on: AMPKa1, AMPKa2
How it was run: (§1)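 Duplicate compound samples were compared with duplicate or quadruplicate controls. After harvesting and lysis, cells' lysates were probe-labeled (ATP-biotin), and kinase labeling was quantitated by ACTIVX.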

[2] = tested on: AurA, AurB, AurC
How it was run: as §1

[3] = biological target: BLK (Homo sapiens (Human), UniProt P51451)
BLK, sequence (P51451 whole entry): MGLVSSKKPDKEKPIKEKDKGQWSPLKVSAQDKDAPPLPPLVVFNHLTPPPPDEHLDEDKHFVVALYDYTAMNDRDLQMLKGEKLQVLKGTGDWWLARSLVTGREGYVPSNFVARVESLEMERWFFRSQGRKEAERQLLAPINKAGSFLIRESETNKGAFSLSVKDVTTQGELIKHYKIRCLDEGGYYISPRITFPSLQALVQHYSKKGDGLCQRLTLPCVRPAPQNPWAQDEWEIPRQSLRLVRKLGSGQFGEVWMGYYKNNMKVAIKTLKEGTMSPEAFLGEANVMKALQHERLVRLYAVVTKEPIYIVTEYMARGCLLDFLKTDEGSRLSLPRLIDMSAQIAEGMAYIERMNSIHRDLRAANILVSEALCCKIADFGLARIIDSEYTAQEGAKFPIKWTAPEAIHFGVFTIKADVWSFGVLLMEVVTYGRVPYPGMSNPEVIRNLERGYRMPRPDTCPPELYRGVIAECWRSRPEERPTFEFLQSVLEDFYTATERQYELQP
How it was run: as §1

[4] = biological target: BRAF (Homo sapiens (Human), UniProt P15056)
BRAF, sequence (P15056 whole entry): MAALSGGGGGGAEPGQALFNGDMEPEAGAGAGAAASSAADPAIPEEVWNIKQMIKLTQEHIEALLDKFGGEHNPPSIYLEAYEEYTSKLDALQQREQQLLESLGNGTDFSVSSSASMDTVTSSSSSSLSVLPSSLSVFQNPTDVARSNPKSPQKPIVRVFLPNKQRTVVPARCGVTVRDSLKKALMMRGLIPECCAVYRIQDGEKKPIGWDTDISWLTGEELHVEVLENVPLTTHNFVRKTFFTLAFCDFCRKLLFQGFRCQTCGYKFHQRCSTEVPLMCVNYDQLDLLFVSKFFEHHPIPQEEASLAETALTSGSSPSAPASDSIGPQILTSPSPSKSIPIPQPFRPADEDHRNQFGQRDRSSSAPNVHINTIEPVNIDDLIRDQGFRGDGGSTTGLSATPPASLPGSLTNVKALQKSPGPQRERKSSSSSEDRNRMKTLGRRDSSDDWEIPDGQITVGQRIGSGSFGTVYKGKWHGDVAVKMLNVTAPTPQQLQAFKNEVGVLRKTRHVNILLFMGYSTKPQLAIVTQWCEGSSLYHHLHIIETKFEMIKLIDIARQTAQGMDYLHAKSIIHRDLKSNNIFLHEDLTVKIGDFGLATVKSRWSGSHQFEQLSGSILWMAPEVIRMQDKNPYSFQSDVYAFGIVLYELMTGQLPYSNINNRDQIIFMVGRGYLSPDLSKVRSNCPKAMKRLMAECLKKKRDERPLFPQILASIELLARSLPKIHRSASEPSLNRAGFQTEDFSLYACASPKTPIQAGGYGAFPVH
How it was run: as §1

[5] = biological target: CDC2 (Homo sapiens (Human), UniProt P06493)
How it was run: as §1

[6] = biological target: CK2a2 (Homo sapiens (Human), UniProt P19784)
How it was run: as §1

[7] = biological target: CSK (Homo sapiens (Human), UniProt P41240)
How it was run: as §1

[8] = biological target: CaMK1d (Homo sapiens (Human), UniProt Q8IU85)
How it was run: as §1

[9] = biological target: EphB1 (Homo sapiens (Human), UniProt P54762)
EphB1, sequence (P54762 18-984): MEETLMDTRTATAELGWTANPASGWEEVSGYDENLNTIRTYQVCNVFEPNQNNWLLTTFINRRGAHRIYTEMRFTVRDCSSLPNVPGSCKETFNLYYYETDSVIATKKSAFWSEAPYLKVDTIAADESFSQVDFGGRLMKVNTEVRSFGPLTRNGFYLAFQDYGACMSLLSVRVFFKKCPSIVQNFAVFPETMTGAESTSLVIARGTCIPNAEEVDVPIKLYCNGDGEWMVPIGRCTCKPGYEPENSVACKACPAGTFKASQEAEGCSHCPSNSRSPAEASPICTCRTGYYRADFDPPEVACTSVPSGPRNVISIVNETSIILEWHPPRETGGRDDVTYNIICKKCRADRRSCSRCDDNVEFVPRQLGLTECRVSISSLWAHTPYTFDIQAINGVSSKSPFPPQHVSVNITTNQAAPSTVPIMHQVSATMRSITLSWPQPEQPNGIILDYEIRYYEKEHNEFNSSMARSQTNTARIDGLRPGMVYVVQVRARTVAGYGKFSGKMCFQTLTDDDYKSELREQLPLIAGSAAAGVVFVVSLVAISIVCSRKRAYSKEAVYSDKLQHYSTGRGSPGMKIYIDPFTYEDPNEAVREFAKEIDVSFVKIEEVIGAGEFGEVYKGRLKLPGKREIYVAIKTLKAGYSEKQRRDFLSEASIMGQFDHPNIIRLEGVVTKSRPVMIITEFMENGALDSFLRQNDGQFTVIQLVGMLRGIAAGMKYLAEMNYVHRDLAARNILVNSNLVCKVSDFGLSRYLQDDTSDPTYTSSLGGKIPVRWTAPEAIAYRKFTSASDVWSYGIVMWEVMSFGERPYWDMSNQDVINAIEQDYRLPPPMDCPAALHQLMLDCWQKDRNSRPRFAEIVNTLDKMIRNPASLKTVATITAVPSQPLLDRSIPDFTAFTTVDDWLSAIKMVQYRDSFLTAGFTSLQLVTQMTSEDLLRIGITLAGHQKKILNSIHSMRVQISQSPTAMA
How it was run: as §1

[10] = biological target: EphB2 (Homo sapiens (Human), UniProt P29323)
EphB2, sequence (P29323 19-1055): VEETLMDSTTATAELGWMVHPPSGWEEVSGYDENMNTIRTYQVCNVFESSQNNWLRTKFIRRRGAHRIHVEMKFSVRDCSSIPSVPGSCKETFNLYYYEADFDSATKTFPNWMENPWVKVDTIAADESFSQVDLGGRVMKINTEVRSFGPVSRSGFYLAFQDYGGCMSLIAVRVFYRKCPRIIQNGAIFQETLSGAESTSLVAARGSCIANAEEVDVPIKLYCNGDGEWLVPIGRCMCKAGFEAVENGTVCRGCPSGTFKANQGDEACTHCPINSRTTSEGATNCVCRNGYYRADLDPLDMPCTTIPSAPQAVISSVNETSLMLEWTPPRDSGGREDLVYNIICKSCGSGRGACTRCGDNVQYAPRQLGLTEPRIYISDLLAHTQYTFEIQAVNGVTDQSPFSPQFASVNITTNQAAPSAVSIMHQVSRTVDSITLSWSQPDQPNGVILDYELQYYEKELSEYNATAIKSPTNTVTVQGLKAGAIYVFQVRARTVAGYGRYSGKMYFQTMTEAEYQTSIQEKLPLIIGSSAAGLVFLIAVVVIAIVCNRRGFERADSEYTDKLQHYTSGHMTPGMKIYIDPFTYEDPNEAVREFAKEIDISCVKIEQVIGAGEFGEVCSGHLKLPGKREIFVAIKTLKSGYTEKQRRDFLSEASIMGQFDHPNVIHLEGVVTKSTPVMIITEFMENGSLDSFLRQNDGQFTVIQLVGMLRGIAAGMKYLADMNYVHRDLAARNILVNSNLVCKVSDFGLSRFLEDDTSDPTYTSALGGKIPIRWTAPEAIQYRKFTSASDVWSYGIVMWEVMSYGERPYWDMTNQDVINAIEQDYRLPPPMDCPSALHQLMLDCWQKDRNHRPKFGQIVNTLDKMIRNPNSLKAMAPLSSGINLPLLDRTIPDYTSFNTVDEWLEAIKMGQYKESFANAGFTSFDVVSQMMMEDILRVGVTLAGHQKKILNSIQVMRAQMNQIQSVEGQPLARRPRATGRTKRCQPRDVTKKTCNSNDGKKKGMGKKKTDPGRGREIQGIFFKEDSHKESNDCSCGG
How it was run: as §1

[11] = biological target: FRAP (Homo sapiens (Human), UniProt P42345)
How it was run: as §1

[12] = biological target: FRK (Homo sapiens (Human), UniProt P42685)
How it was run: as §1

[13] = biological target: IKKa (Homo sapiens (Human), UniProt O15111)
How it was run: as §1

[14] = biological target: IRE1 (Homo sapiens (Human), UniProt O75460)
How it was run: as §1

[15] = tested on: JNK1, JNK2, JNK3
How it was run: as §1

[16] = biological target: KHS1 (Homo sapiens (Human), UniProt Q9Y4K4)
How it was run: as §1

[17] = biological target: MAP2K6 (Homo sapiens (Human), UniProt P52564)
MAP2K6, sequence (P52564 whole entry): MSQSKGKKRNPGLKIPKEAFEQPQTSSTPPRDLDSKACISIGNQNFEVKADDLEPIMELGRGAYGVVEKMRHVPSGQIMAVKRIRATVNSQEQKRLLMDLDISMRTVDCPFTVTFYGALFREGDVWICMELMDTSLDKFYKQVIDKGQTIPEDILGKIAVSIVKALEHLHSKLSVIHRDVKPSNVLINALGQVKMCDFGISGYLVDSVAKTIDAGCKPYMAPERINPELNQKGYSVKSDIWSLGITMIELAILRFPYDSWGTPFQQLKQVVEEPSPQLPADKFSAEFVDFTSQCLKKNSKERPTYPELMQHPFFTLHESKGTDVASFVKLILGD
How it was run: as §1

[18] = biological target: MAP2K7 (Homo sapiens (Human), UniProt O14733)
How it was run: as §1

[19] = biological target: MAP3K4 (Homo sapiens (Human), UniProt Q9Y6R4)
How it was run: as §1

[20] = biological target: MAP3K5 (Homo sapiens (Human), UniProt Q99683)
How it was run: as §1

[21] = biological target: MARK3 (Homo sapiens (Human), UniProt P27448)
How it was run: as §1

[22] = biological target: MARK4 (Homo sapiens (Human), UniProt Q96L34)
How it was run: as §1

[23] = biological target: MASTL (Homo sapiens (Human), UniProt Q96GX5)
How it was run: as §1

[24] = tested on: MST1, MST2
How it was run: as §1

[25] = biological target: MST2 (Homo sapiens (Human), UniProt Q13188)
MST2, sequence (Q13188 whole entry): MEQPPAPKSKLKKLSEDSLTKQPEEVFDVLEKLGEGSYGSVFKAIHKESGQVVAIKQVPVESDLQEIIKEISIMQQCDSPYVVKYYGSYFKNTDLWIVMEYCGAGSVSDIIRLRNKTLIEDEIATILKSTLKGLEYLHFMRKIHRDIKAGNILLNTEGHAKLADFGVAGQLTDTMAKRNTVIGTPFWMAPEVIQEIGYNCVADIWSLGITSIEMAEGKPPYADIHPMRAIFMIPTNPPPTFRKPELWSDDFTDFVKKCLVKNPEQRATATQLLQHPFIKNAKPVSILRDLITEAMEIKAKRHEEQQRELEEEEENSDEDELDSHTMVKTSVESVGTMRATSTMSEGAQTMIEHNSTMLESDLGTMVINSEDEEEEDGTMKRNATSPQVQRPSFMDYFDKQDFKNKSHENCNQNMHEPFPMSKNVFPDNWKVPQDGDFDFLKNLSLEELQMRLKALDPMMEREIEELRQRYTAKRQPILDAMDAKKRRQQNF
How it was run: as §1

[26] = biological target: NEK3 (Homo sapiens (Human), UniProt P51956)
How it was run: as §1

[27] = biological target: NEK4 (Homo sapiens (Human), UniProt P51957)
How it was run: as §1

[28] = tested on: NEK6, NEK7
How it was run: as §1

[29] = biological target: NEK9 (Homo sapiens (Human), UniProt Q8TD19)
How it was run: as §1

[30] = biological target: PAN3 (Homo sapiens (Human), UniProt Q58A45)
How it was run: as §1

[31] = biological target: PIP5K3 (Homo sapiens (Human), UniProt Q9Y2I7)
How it was run: as §1

[32] = biological target: PKD2 (Homo sapiens (Human), UniProt Q9BZL6)
How it was run: as §1

[33] = biological target: ROCK1 (Homo sapiens (Human), UniProt Q13464)
How it was run: as §1

[34] = tested on: RSK1, RSK2, RSK3 domain1
How it was run: as §1

[35] = biological target: RSK3 (Homo sapiens (Human), UniProt Q15349)
How it was run: as §1

[36] = biological target: RSK4 domain1 (Homo sapiens (Human), UniProt Q9UK32)
RSK4 domain1, sequence (Q9UK32 whole entry, the tested form may be a part): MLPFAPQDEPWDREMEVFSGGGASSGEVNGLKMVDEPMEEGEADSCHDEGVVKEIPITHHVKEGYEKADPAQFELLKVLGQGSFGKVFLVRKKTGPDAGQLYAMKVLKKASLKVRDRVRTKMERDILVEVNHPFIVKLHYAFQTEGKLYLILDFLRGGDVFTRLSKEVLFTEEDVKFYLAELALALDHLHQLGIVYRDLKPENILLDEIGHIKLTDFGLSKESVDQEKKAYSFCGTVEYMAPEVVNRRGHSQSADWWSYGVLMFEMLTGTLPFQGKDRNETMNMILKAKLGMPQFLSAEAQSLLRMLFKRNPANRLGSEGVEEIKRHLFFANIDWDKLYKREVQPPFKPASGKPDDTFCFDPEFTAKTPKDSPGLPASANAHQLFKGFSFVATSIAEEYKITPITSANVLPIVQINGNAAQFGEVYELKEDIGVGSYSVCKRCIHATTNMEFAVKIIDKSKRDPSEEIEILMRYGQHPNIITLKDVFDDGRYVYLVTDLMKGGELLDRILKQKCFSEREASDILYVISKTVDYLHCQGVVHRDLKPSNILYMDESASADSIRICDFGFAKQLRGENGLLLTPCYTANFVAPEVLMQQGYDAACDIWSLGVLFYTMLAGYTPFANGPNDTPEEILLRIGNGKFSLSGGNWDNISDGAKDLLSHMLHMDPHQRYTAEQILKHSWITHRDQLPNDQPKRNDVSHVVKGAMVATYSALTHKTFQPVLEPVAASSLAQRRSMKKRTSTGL
How it was run: as §1

[37] = biological target: STLK5 (Homo sapiens (Human), UniProt Q7RTN6)
How it was run: as §1

[38] = biological target: TAK1 (Homo sapiens (Human), UniProt O43318)
How it was run: as §1

[39] = tested on: Wnk1, Wnk2, Wnk3
How it was run: as §1

[40] = biological target: p38b (Homo sapiens (Human), UniProt Q15759)
How it was run: as §1

[41] = biological target: PYK2 (Homo sapiens (Human), UniProt Q14289)
How it was run: as §1

C=CC(=O)N1CCC(Cn2ccc(Nc3ncc(C(=O)Nc4c(C)cccc4Cl)s3)n2)C1 (stereo not shown) [II-1]
% change of MS signal compared to control sample [1]: −19.4% and −27.3% | % change of MS signal compared to control sample [2]: −3.6% | % change of MS signal compared to control sample [3]: >95% | % change of MS signal compared to control sample [4]: 6.9% | % change of MS signal compared to control sample [5]: −5.2% and 2.7% | % change of MS signal compared to control sample [6]: 13.8% | % change of MS signal compared to control sample [7]: 26.2% and 32.5% | % change of MS signal compared to control sample [8]: −7.9% and −2.8% | % change of MS signal compared to control sample [9]: 91.0% | % change of MS signal compared to control sample [10]: >90% | % change of MS signal compared to control sample [11]: 8.6% | % change of MS signal compared to control sample [12]: 84.0% | % change of MS signal compared to control sample [13]: −2.1% | % change of MS signal compared to control sample [14]: −29.5% | % change of MS signal compared to control sample [15]: −23.5% | % change of MS signal compared to control sample [16]: −0.6% | % change of MS signal compared to control sample [17]: −8.3% and −12.6% | % change of MS signal compared to control sample [18]: −0.6% | % change of MS signal compared to control sample [19]: −23.9% | % change of MS signal compared to control sample [20]: −22.9% | % change of MS signal compared to control sample [21]: 18.4% | % change of MS signal compared to control sample [22]: 12.8% and 9.7% | % change of MS signal compared to control sample [23]: −16.7% and −8.2% | % change of MS signal compared to control sample [24]: 3.1% | % change of MS signal compared to control sample [25]: 14.7% | % change of MS signal compared to control sample [26]: 8.1% | % change of MS signal compared to control sample [27]: 18.5% | % change of MS signal compared to control sample [28]: −0.2% | % change of MS signal compared to control sample [29]: −1.0% and −0.1% | % change of MS signal compared to control sample [30]: −7.0% | % change of MS signal compared to control sample [31]: 16.3% | % change of MS signal compared to control sample [32]: 12.7% | % change of MS signal compared to control sample [33]: 12.8% | % change of MS signal compared to control sample [34]: −52.0% | % change of MS signal compared to control sample [35]: 22.3% | % change of MS signal compared to control sample [36]: −22.4% | % change of MS signal compared to control sample [37]: 2.6% and 3.8% | % change of MS signal compared to control sample [38]: 25.6% | % change of MS signal compared to control sample [39]: 2.4% | % change of MS signal compared to control sample [40]: −19.0%

C=CC(=O)N1CCC(CNc2nccc(Nc3ncc(C(=O)Nc4c(C)cccc4C)s3)n2)C1 (racemic) [Example I-8]
% change of MS signal compared to control sample [2]: −2.9% | % change of MS signal compared to control sample [3]: >95% | % change of MS signal compared to control sample [4]: 11.1% | % change of MS signal compared to control sample [6]: 27.5% | % change of MS signal compared to control sample [7]: 88.1% and 86.2% | % change of MS signal compared to control sample [8]: −14.1% and −8.7% | % change of MS signal compared to control sample [9]: >97% | % change of MS signal compared to control sample [10]: >90% | % change of MS signal compared to control sample [11]: −5.2% | % change of MS signal compared to control sample [12]: 95.3% | % change of MS signal compared to control sample [13]: −4.2% | % change of MS signal compared to control sample [14]: −1.5% | % change of MS signal compared to control sample [15]: −9.5% | % change of MS signal compared to control sample [16]: −8.4% | % change of MS signal compared to control sample [18]: −7.5% | % change of MS signal compared to control sample [19]: 12.8% | % change of MS signal compared to control sample [20]: −0.7% | % change of MS signal compared to control sample [21]: 7.8% | % change of MS signal compared to control sample [22]: −0.4% and 1.6% | % change of MS signal compared to control sample [23]: −16.9% and −9.5% | % change of MS signal compared to control sample [24]: 8.7% | % change of MS signal compared to control sample [25]: 4.3% | % change of MS signal compared to control sample [26]: 3.2% | % change of MS signal compared to control sample [27]: 15.2% | % change of MS signal compared to control sample [28]: −11.0% | % change of MS signal compared to control sample [29]: −1.3% and −0.3% | % change of MS signal compared to control sample [30]: 18.3% | % change of MS signal compared to control sample [31]: 4.2% | % change of MS signal compared to control sample [32]: 8.7% | % change of MS signal compared to control sample [41]: 20.3% and 25.5% | % change of MS signal compared to control sample [33]: 4.4% | % change of MS signal compared to control sample [34]: −55.6% | % change of MS signal compared to control sample [35]: 2.9% | % change of MS signal compared to control sample [36]: −8.2% | % change of MS signal compared to control sample [37]: 1.1% and −4.0% | % change of MS signal compared to control sample [38]: 9.7% | % change of MS signal compared to control sample [39]: 1.7% | % change of MS signal compared to control sample [40]: 12.0%

C=CC(=O)N1CCCCC(Nc2nccc(Nc3ncc(C(=O)Nc4c(C)cccc4C)s3)n2)C1 (stereo not shown) [Example I-7]
% change of MS signal compared to control sample [1]: −20.7% and −22.3% | % change of MS signal compared to control sample [2]: 0.4% | % change of MS signal compared to control sample [3]: >95% | % change of MS signal compared to control sample [4]: 21.7% | % change of MS signal compared to control sample [5]: −16.2% | % change of MS signal compared to control sample [6]: −6.4% | % change of MS signal compared to control sample [7]: 76.5% and 75.7% | % change of MS signal compared to control sample [8]: −19.1% and −16.0% | % change of MS signal compared to control sample [9]: >97% | % change of MS signal compared to control sample [10]: >90% | % change of MS signal compared to control sample [11]: −3.5% | % change of MS signal compared to control sample [12]: 93.3% | % change of MS signal compared to control sample [13]: −3.5% | % change of MS signal compared to control sample [14]: −15.7% | % change of MS signal compared to control sample [15]: −4.8% | % change of MS signal compared to control sample [16]: −5.9% | % change of MS signal compared to control sample [17]: 5.9% and 2.5% | % change of MS signal compared to control sample [18]: 11.2% | % change of MS signal compared to control sample [19]: −24.2% | % change of MS signal compared to control sample [20]: −9.3% | % change of MS signal compared to control sample [21]: 12.7% | % change of MS signal compared to control sample [22]: 4.9% and 14.1% | % change of MS signal compared to control sample [23]: −10.9% and −13.8% | % change of MS signal compared to control sample [24]: 9.5% | % change of MS signal compared to control sample [25]: 6.5% | % change of MS signal compared to control sample [26]: 15.6% | % change of MS signal compared to control sample [27]: 7.9% | % change of MS signal compared to control sample [28]: −8.4% | % change of MS signal compared to control sample [29]: 2.5% and 1.1% | % change of MS signal compared to control sample [30]: −0.2% | % change of MS signal compared to control sample [31]: 4.3% | % change of MS signal compared to control sample [32]: 10.0% | % change of MS signal compared to control sample [41]: 16.6% and 28.4% | % change of MS signal compared to control sample [33]: 6.6% | % change of MS signal compared to control sample [34]: −58.3% | % change of MS signal compared to control sample [35]: 12.6% | % change of MS signal compared to control sample [36]: −13.5% | % change of MS signal compared to control sample [38]: 14.5% | % change of MS signal compared to control sample [39]: 10.4% | % change of MS signal compared to control sample [40]: −1.5%
